In patent US7399777B2, “Diarylcycloalkyl derivatives, processes for their preparation and their use as pharmceuticals” (Sanofi-Aventis Deutschland GmbH, priority 2001, dated 2008) one finds EC50 data, which are given here for 13 molecules.

What is called EC50 is the concentration at which the effect is half-maximal. Low values mean higher potency in that assay, high ones lower potency in that assay.

The assay concerns the target T1, human PPARα (Homo sapiens, UniProt Q07869).
T1 construct: expressed in transfected cells; host or cells: HEK cells (human embryo kidney), stably transfected with pcDNA3-GR-GAL4-humanPPARα and the luciferase reporter pdeltaMG4LZ
T1 sequence (Q07869 167-468): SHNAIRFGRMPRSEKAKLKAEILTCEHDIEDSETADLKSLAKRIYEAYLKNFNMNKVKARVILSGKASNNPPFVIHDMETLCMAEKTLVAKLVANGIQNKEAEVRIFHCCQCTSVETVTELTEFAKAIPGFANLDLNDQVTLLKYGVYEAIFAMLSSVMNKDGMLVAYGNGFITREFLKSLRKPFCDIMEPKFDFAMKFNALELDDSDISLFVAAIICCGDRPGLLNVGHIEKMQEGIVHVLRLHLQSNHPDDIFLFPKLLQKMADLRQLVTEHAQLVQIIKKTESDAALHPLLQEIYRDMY
Nature of the assay: PPARα reporter cell line assay (stably transfected HEK cells, GR-GAL4-PPARα fusion protein, firefly luciferase reporter). The following applies: agonist activity in HEK PPARα reporter cell line; 24 h incubation; luciferase luminescence. It is filed as cell-based. The source says:
To analyze the effectiveness of substances which bind to human PPARα, activating it in agonistic manner, a stable transfected HEK cell line (HEK=human embryo kidney) designated here as “PPARα reporter cell line” is used. It contains two genetic elements, a firefly luciferase reporter element and a PPARα fusion protein (GR-GAL4-PPARα) which controls the expression of the firefly luciferase reporter element in a PPARα ligand dependent way.
The PPARα reporter cell line was established in two steps: First, the firefly luciferase reporter element was constructed and stably transfected into HEK cells. Five DNA binding sites for the yeast transcription factor GAL4 (five repetitions of the sequence 5′-CGGAGTACTGTCCTCCGAG-3′) (SEQ ID NO:1) were cloned 5′ upstream of a 68 bp minimal RNA polymerase II promoter from the GR mouse mammary tumor virus long terminal repeat (accession # V01175) providing a CCAAT-box as well as a TATA-element. Cloning and sequencing was done as described by Sambrook J. et. al. (Molecular cloning, Cold Spring Harbor Laboratory Press, 1989). The complete Photinus pyralis luciferase gene (accession # M 15077) was cloned 3′ downstream of the GAL4 binding sites and the MMTV minimal promoter. The firefly luciferase reporter element consisting of 5 GAL4 binding sites, the MMTV minimal promoter and the full length luciferase gene was recloned into a plasmid backbone harboring a Zeozin resistence gene leading to plasmid “pdeltaMG4LZ”. This vector was transfected in HEK cells as described by Ausubel, F. M. et al. (Current protocols in molecular biology, Vol. 1-3, John Wiley & Sons, Inc., 1995). Stable clones have been selected using Zeozin as a selection agent (0.5 mg/ml).
In a second step, the PPARα fusion protein (GR-GAL4-PPARα) that controls expression of the firefly luciferase reporter element, was stably integrated in this cell background. For this purpose the cDNAs coding for the N-terminal 76 amino acids of the human glucocorticoid receptor (“GR”, accession # P04150) have been linked to amino acids 1-147 of the yeast GAL4-protein (accession # P04386) followed by the ligand binding domain of humanPPARα (amino acids S167-Y468, accession # S74349). The GR-GAL4-human PPARα construct was cloned into plasmid pcDNA3 (Invitrogen) were its expression is driven constitutively by the Cytomegalovirus promoter. The plasmid pcDNA3-GR-GAL4-humanPPARα was transfected in a stable HEK-cell clone that already contained the firefly luciferase reporter element described above. A double-transfected cell line containing both, the firefly luciferase reporter element as well as the GR-GAL4-humanPPARα fusion protein, has been selected on medium supplemented with Zeozin (0.5 mg/ml) and G418 (0.5 mg/ml).
The activity of PPARα agonists is determined in a three day test, described below:
The PPARα reporter cell line is cultivated up to 80% confluence in DMEM medium (# 41965-039, Life Technologies) with the following additives: 10% cs-FCS (fetal calf serum, #SH-30068.03, Hyclone), antibiotics (0.5 mg/ml of zeozin [#R250-01, Invitrogen], 0.5 mg/ml of G418 [#10131-019, Life Technologies], 1% penicillin streptomycin solution [#15140-031, Life Technologies]) and 2 mM of L-glutamine (#25030-032, Life Technologies). Cultivation is carried out in standard cell culture bottles (# 33111, Becton Dickinson) in a cell culture incubator at 37° C. and 5% CO2. The 80% confluent cells are washed once with 30 ml of PBS (#14190-094, Life Technologies), treated with 2 ml of trypsin solution (#25300-054, Life Technologies) at 37° C. for 2 min, taken up in 5 ml of the medium described above and counted in a cell counter. After dilution to 500,000 cells/ml, in each case 35,000 cells are sown into each well of a 96-well microtiter plate having a clear plastic bottom (#3610, Coming Costar). The plates are incubated in a cell incubator at 37° C. and 5% CO2 for 24 h.
The PPARα agonists to be tested are dissolved in DMSO at a concentration of 10 mM. […]

In turn, `Cc1cccc(CO[C@@H]2CCC[C@H](COCc3coc(-c4ccc(F)cc4)n3)C2)c1C(=O)O` (racemic) [Example XXIV, rac-cis-2-{3-[2-(4-Fluorophenyl)oxazol-4-ylmethoxymethyl]cyclohexyloxymethyl}-6-methylbenzoic acid] yielded an EC50 of 0.9 nM.
To `COc1ccc(-c2nc(CO[C@H]3CCC[C@@H](OCc4cccc(C)c4C(=O)O)C3)co2)cc1` (relative stereo) [IV, cis-2-(3-(2-(4-Methoxyphenyl)oxazol-4-ylmethoxy)cyclohexyloxymethyl)-6-methylbenzoic acid] belongs 0.3 nM; to `Cc1cccc(CO[C@@H]2CCC[C@H](OCc3nc(-c4cccc(C(F)(F)F)c4)oc3C)C2)c1C(=O)O` [Example L, 2-{1R,3S-3-[2-(3-Trifluoromethylphenyl)-5-methyloxazol-4-ylmethoxy]cyclohexyloxymethyl}-6-methylbenzoic acid], 0.19 nM; to `Cc1ccc(-c2nc(CO[C@H]3CCC[C@@H](OCc4cccc(C)c4C(=O)O)C3)c(C)o2)cc1` [LXII, 2-Methyl-6-[1R,3S-3-(5-methyl-2-p-tolyloxazol-4-ylmethoxy)cyclohexyloxymethyl]benzoic acid], 0.08 nM.
The result for `Cc1cccc(CO[C@@H]2CCC[C@H](OCc3nc(-c4ccc(F)cc4)oc3C)C2)c1C(=O)O` (stereo in doubt) [IX, cis-2-(3-[2-(4-Fluorophenyl)-5-methyloxazol-4-ylmethoxy]cyclohexyloxymethyl}-6-methylbenzoic acid] reads 0.04 nM; that for `Cc1ccc(-c2nc(CO[C@H]3CCC[C@@H](OCc4cccc(C)c4C(=O)O)C3)c(C)o2)cc1C` [LIV, 2-{1R,3S-3-[2-(3,4-Dimethylphenyl)-5-methyloxazol-4-ylmethoxy]cyclohexyloxymethyl}-6-methylbenzoic acid], 0.08 nM; that for `Cc1ccc(-c2nc(CO[C@@H]3CCC[C@H](OCc4cccc(C)c4C(=O)O)C3)c(C)o2)cc1` [LXIII, 2-Methyl-6-[1S,3R-3-(5-methyl-2-p-tolyloxazol-4-ylmethoxy)cyclohexyloxymethyl]benzoic acid], 0.56 nM.
Molecule `Cc1ccc(-c2nc(CO[C@H]3CCC[C@@H](OCc4cccc(C)c4C(=O)O)C3)c(C)o2)c(C)c1` [LV, 2-{1R,3S-3-[2-(2,4-Dimethylphenyl)-5-methyloxazol-4-ylmethoxy]cyclohexyloxymethyl}-6-methylbenzoic acid] had an EC50 of 0.09 nM. Against the preceding molecule, the EC50 is about 6.2-fold lower.
The molecule “2-{3-[2-(4-Fluorophenyl)oxazol-4-ylmethoxy]cyclohexyloxy}-6-methylbenzoic acid [Example I]” had an EC50 of 1 nM.
The molecule `Cc1cccc(CO[C@@H]2CCC[C@H](OCc3nc(-c4ccc(OC(F)(F)F)cc4)oc3C)C2)c1C(=O)O` [LXX, 2-methyl-6-[(1R,3S)-3-(5-methyl-2-(4-trifluoromethoxyphenyl)-oxazol-4-ylmethoxy)-cyclohexyloxymethyl]-benzoic acid] came in with an EC50 of 0.28 nM.
In the case of `COc1ccc(-c2nc(CO[C@H]3CCC[C@@H](OCc4cccc(C)c4C(=O)O)C3)c(C)o2)cc1` [LXIV, 2-{1R,3S-3-[2-(4-Methoxyphenyl)-5-methyloxazol-4-ylmethoxy]cyclohexyloxymethyl}-6-methylbenzoic acid], a half-maximal response (EC50) required 0.13 nM.
For the molecule `Cc1ccc(-c2nc(CO[C@@H]3CCC[C@H](OCc4cccc(C)c4C(=O)O)C3)co2)cc1` (stereo in doubt) [VII, cis-2-Methyl-6-[3-(2-p-tolyloxazol-4-ylmethoxy)cyclohexyloxymethyl]benzoic acid], the EC50 was 4 nM.
On to `Cc1cccc(CO[C@@H]2CCC[C@H](OCc3nc(-c4cccc(Cl)c4)oc3C)C2)c1C(=O)O` [LI, 2-{1R,3S-3-[2-(3-Chlorophenyl)-5-methyloxazol-4-ylmethoxy]cyclohexyloxymethyl}-6-methylbenzoic acid], for which the EC50 was 0.31 nM.
